Laboratory results reported in patent publication US20260217735A1, “HETEROCYCLES AND USES THEREOF” (Kumquat Biosciences Inc., priority 2023, published 2026).

How the values were obtained:
KRAS G12S = molecular target: T1, KRAS G12S (Homo sapiens, UniProt P01116, G12S); assay: HTRF assay, KRAS G12S interaction with SOS1; assay type: biochemical; details: bins <500 nM / 500 nM to 1000 nM, read-out: Inhibition of KRAS G12S (IC50)
T1 construct: made in house; host or cells: E. coli, e.g. BL21 (DE3)

KRAS WT = molecular target: T2, KRAS WT (Homo sapiens, UniProt P01116); assay: HTRF assay, wildtype KRAS interaction with SOS1; assay type: biochemical; details: bins <500 nM / 500 nM to 1000 nM, read-out: Inhibition of KRAS WT (IC50)
T2 construct: made in house; host or cells: E. coli, e.g. BL21 (DE3)

KRAS G12D = molecular target: T3, KRAS G12D (Homo sapiens, UniProt P01116, G12D); assay: HTRF assay, KRAS G12D interaction with SOS1; assay type: biochemical; details: bins <500 nM / 500 nM to 1000 nM, read-out: Inhibition of KRAS G12D (IC50)
T3 construct: made in house; host or cells: E. coli, e.g. BL21 (DE3)

MiaPaca2 cells = assay: Ras cellular assay, growth of cells with K-Ras G12C mutation; assay type: cell-based; details: Homo sapiens, MIA PaCa-2; cell proliferation assay; bins ≤500 nM / >500 nM; read-out: Inhibition of MiaPaca2 Cells (IC50)
Summary of the method: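 Anchorage-independent growth: G12C-mutant MIA PaCa-2 plated in soft agar, time-zero plate read the next day when compound was dosed (final DMSO 0.3%). After growth to day 10, MTS-type absorbance at 490/660 nm relative to time zero gave IC50 via four-parameter fitting.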

KRAS G12V = molecular target: T4, KRAS G12V (Homo sapiens, UniProt P01116, G12V); assay: HTRF assay, KRAS G12V interaction with SOS1; assay type: biochemical; details: bins <500 nM / 500 nM to 1000 nM, read-out: Inhibition of KRAS G12V (IC50)
T4 construct: made in house; host or cells: E. coli, e.g. BL21 (DE3)
T4 sequence (P01116 1-188 isoform P01116-2 G12V): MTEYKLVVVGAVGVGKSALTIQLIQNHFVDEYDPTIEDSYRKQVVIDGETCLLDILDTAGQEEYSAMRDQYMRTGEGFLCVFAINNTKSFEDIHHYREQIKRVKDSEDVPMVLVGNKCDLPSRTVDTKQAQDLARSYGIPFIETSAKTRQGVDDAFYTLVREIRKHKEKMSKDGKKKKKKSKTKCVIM

T1 sequence (P01116 1-188 isoform P01116-2 G12S): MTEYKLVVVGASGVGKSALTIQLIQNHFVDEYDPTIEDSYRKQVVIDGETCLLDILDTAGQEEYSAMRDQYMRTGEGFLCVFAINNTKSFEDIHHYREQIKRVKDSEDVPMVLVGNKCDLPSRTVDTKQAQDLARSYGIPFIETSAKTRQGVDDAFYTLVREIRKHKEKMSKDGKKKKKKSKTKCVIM
T3 sequence (P01116 1-188 isoform P01116-2 G12D): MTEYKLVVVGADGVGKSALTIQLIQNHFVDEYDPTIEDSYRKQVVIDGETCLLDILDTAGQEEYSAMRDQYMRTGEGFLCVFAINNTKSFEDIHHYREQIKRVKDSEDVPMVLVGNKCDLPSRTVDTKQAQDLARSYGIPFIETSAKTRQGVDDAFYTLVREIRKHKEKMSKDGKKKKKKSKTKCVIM
T2 sequence (P01116 1-188 isoform P01116-2): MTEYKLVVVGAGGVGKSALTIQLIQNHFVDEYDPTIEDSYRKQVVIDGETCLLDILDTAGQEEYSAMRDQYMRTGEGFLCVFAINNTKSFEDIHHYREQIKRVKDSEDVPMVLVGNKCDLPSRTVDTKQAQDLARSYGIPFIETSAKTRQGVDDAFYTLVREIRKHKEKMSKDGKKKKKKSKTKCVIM

Structure (SMILES): Cc1nc(C)n(C(=O)N2CC[C@@H](N(C)c3nc(OC[C@@]45CCCN4C[C@H](F)C5)nc4c(F)c(-c5ccc(F)c6sc(N)c(C#N)c56)c(Cl)cc34)[C@H]2C)c1C [Compound 127, 2-amino-4-(6-chloro-8-fluoro-2-(((2R,7aS)-2-fluorotetrahydro-1H-pyrrolizin-7a(5H)-yl)methoxy)-4-(methyl((2R,3R)-2-methyl-1-(2,4,5-trimethyl-1H-imidazole-1-carbonyl)pyrrolidin-3-yl)amino)quinazolin-7-yl)-7-fluorobenzo[b]thiophene-3-carbonitrile]
- IC50 (KRAS G12S): < 500 nM
- IC50 (KRAS WT): < 500 nM
- IC50 (KRAS G12D): < 500 nM
- IC50 (MiaPaca2 cells): ≤ 500 nM
- IC50 (KRAS G12V): < 500 nM

Structure (SMILES): Cc1cn(C(=O)N2CC(F)(CN(C)c3nc(OC[C@@]45CCCN4C[C@H](F)C5)nc4c(F)c(-c5ccc(F)c6sc(N)c(C#N)c56)c(Cl)cc34)C2)cn1 [Compound 128, 2-amino-4-(6-chloro-8-fluoro-4-(((3-fluoro-1-(4-methyl-1H-imidazole-1-carbonyl)azetidin-3-yl)methyl)(methyl)amino)-2-(((2R,7aS)-2-fluorotetrahydro-1H-pyrrolizin-7a(5H)-yl)methoxy)quinazolin-7-yl)-7-fluorobenzo[b]thiophene-3-carbonitrile]
- IC50 (KRAS G12S): < 500 nM
- IC50 (KRAS WT): < 500 nM
- IC50 (KRAS G12D): < 500 nM
- IC50 (MiaPaca2 cells): ≤ 500 nM
- IC50 (KRAS G12V): < 500 nM

Structure (SMILES): CCN(c1nc(OC[C@@]23CCCN2C[C@H](F)C3)nc2c(F)c(-c3ccc(F)c4sc(N)c(C#N)c34)c(Cl)cc12)[C@@H]1CCN(C(=O)n2cc(Cl)nc2C)[C@@H]1C [Compound 130, 2-amino-4-(6-chloro-4-(((2R,3R)-1-(4-chloro-2-methyl-1H-imidazole-1-carbonyl)-2-methylpyrrolidin-3-yl)(ethyl)amino)-8-fluoro-2-(((2R,7aS)-2-fluorotetrahydro-1H-pyrrolizin-7a(5H)-yl)methoxy)quinazolin-7-yl)-7-fluorobenzo[b]thiophene-3-carbonitrile]
- IC50 (KRAS G12S): < 500 nM
- IC50 (KRAS WT): < 500 nM
- IC50 (KRAS G12D): < 500 nM
- IC50 (MiaPaca2 cells): ≤ 500 nM
- IC50 (KRAS G12V): < 500 nM

Structure (SMILES): Cc1ncn(C(=O)N2C[C@]3(CCCCN(c4nc(OC[C@@]56CCCN5C[C@H](F)C6)nc5c(F)c(-c6ccc(F)c7sc(N)c(C#N)c67)c(Cl)cc45)C3)[C@H]2C)c1C [Compound 131, 2-amino-4-(6-chloro-4-((1R,4R)-2-(4,5-dimethyl-1H-imidazole-1-carbonyl)-1-methyl-2,6-diazaspiro[3.6]decan-6-yl)-8-fluoro-2-(((2R,7aS)-2-fluorotetrahydro-1H-pyrrolizin-7a(5H)-yl)methoxy)quinazolin-7-yl)-7-fluorobenzo[b]thiophene-3-carbonitrile]
- IC50 (KRAS G12S): < 500 nM
- IC50 (KRAS WT): < 500 nM
- IC50 (KRAS G12D): < 500 nM
- IC50 (MiaPaca2 cells): ≤ 500 nM
- IC50 (KRAS G12V): < 500 nM

Structure (SMILES): CC[C@@H]1[C@H](N(C)c2nc(OC[C@@]34CCCN3C[C@H](F)C4)nc3c(F)c(-c4ccc(F)c5sc(N)c(C#N)c45)c(Cl)cc23)CCN1C(=O)n1cnc(F)n1 [Compound 134, 2-amino-4-(6-chloro-4-(((2R,3R)-2-ethyl-1-(3-fluoro-1H-1,2,4-triazole-1-carbonyl)pyrrolidin-3-yl)(methyl)amino)-8-fluoro-2-(((2R,7aS)-2-fluorotetrahydro-1H-pyrrolizin-7a(5H)-yl)methoxy)quinazolin-7-yl)-7-fluorobenzo[b]thiophene-3-carbonitrile]
- IC50 (KRAS G12S): < 500 nM
- IC50 (KRAS WT): < 500 nM
- IC50 (KRAS G12D): < 500 nM
- IC50 (MiaPaca2 cells): ≤ 500 nM
- IC50 (KRAS G12V): < 500 nM

Structure (SMILES): C[C@@H]1[C@H](N(C)c2nc(OC[C@@]34CCCN3C[C@H](F)C4)nc3c(F)c(-c4ccc(F)c5sc(N)c(C#N)c45)c(Cl)cc23)CCN1C(=O)n1cnc(C2CC2)c1 [Compound 135, 2-amino-4-(6-chloro-4-(((2R,3R)-1-(4-cyclopropyl-1H-imidazole-1-carbonyl)-2-methylpyrrolidin-3-yl)(methyl)amino)-8-fluoro-2-(((2R,7aS)-2-fluorotetrahydro-1H-pyrrolizin-7a(5H)-yl)methoxy)quinazolin-7-yl)-7-fluorobenzo[b]thiophene-3-carbonitrile]
- IC50 (KRAS G12S): < 500 nM
- IC50 (KRAS WT): < 500 nM
- IC50 (KRAS G12D): < 500 nM
- IC50 (MiaPaca2 cells): ≤ 500 nM
- IC50 (KRAS G12V): < 500 nM

Structure (SMILES): CCN(c1nc(OC[C@@]23CCCN2C[C@H](F)C3)nc2c(F)c(-c3ccc(F)c4sc(N)c(C#N)c34)c(Cl)cc12)[C@@H]1CCN(C(=O)n2ccc(C#N)n2)[C@@H]1C [Compound 136, 1-((2R,3R)-3-((7-(2-amino-3-cyano-7-fluorobenzo[b]thiophen-4-yl)-6-chloro-8-fluoro-2-(((2R,7aS)-2-fluorotetrahydro-1H-pyrrolizin-7a(5H)-yl)methoxy)quinazolin-4-yl)(ethyl)amino)-2-methylpyrrolidine-1-carbonyl)-1H-pyrazole-3-carbonitrile]
- IC50 (KRAS G12S): < 500 nM
- IC50 (KRAS WT): < 500 nM
- IC50 (KRAS G12D): < 500 nM
- IC50 (MiaPaca2 cells): ≤ 500 nM
- IC50 (KRAS G12V): < 500 nM

Structure (SMILES): CCN(c1nc(OC[C@@]23CCCN2C[C@H](F)C3)nc2c(F)c(-c3ccc(F)c4sc(N)c(C#N)c34)c(Cl)cc12)[C@@H]1CCN(C(=O)n2cc(C)nc2Cl)[C@@H]1C [Compound 137, 2-amino-4-(6-chloro-4-(((2R,3R)-1-(2-chloro-4-methyl-1H-imidazole-1-carbonyl)-2-methylpyrrolidin-3-yl)(ethyl)amino)-8-fluoro-2-(((2R,7aS)-2-fluorotetrahydro-1H-pyrrolizin-7a(5H)-yl)methoxy)quinazolin-7-yl)-7-fluorobenzo[b]thiophene-3-carbonitrile]
- IC50 (KRAS G12S): < 500 nM
- IC50 (KRAS WT): < 500 nM
- IC50 (KRAS G12D): < 500 nM
- IC50 (MiaPaca2 cells): ≤ 500 nM
- IC50 (KRAS G12V): < 500 nM

Structure (SMILES): Cc1cn(C(=O)N2CC3(CCCCN(c4nc(OC[C@@]56CCCN5C[C@H](F)C6)nc5c(F)c(-c6ccc(F)c7sc(N)c(C#N)c67)c(Cl)cc45)C3)C2)c(C)n1 [Compound 138, 2-amino-4-(6-chloro-4-(2-(2,4-dimethyl-1H-imidazole-1-carbonyl)-2,6-diazaspiro[3.6]decan-6-yl)-8-fluoro-2-(((2R,7aS)-2-fluorotetrahydro-1H-pyrrolizin-7a(5H)-yl)methoxy)quinazolin-7-yl)-7-fluorobenzo[b]thiophene-3-carbonitrile]
- IC50 (KRAS G12S): < 500 nM
- IC50 (KRAS WT): < 500 nM
- IC50 (KRAS G12D): < 500 nM
- IC50 (MiaPaca2 cells): ≤ 500 nM
- IC50 (KRAS G12V): < 500 nM

Structure (SMILES): CCN(c1nc(OC[C@@]23CCCN2C[C@H](F)C3)nc2c(F)c(-c3ccc(F)c4sc(N)c(C#N)c34)c(C(F)(F)F)cc12)[C@@H]1CCN(C(=O)n2cnc(C#N)c2C)[C@@H]1C [Compound 139, 1-((2R,3R)-3-((7-(2-amino-3-cyano-7-fluorobenzo[b]thiophen-4-yl)-8-fluoro-2-(((2R,7aS)-2-fluorotetrahydro-1H-pyrrolizin-7a(5H)-yl)methoxy)-6-(trifluoromethyl)quinazolin-4-yl)(ethyl)amino)-2-methylpyrrolidine-1-carbonyl)-5-methyl-1H-imidazole-4-carbonitrile]
- IC50 (KRAS G12S): < 500 nM
- IC50 (KRAS WT): < 500 nM
- IC50 (KRAS G12D): < 500 nM
- IC50 (MiaPaca2 cells): ≤ 500 nM
- IC50 (KRAS G12V): < 500 nM
